From patent US20030109583A1 (priority 2001, published 2003)
Where two headings read alike, the source gives them in different places.

Tests used:
Acinetobacter baumanii = assay: in vitro MIC assay; format: cell-based; settings: Acinetobacter baumannii, activity = MIC<128 μg/ml
Method: (§1) The ability of negamycin or deoxynegamycin, or pharmaceutically acceptable salts, prodrugs or isomers thereof, to treat bacterial infection was measured by in vitro assay described below. The compounds were kept in DMSO at 10 mg/ml and diluted into the test medium for the assay.
(§2) The strains used for assaying negamycin include the following: Acinetobacter baumanii, Citrobacter freundii, Enterobacter aerogenes, Haemophilus influenzae, Moraxella catarrhalis, Staphylococcus aureus MRSA, Staphylococcus aureus GISA, Staphylococcus epidermis, Streptococcus pneumoniae PenR, Streptococcus pneumoniae PenS, Streptococcus pyogenes, Helicobacter pylori and E. faecium. The strains used for assaying deoxynegamycin include the following: Haemophilus influenzae, Staphylococcus aureus MRSA, Staphylococcus aureus GISA, Staphylococcus epidermis, Streptococcus pneumoniae PenR, Streptococcus pneumoniae PenS, Streptococcus pyogenes and E. facium.
(§3) (1) Liquid Medium, Nutrient Broth and Mueller-Hinton Broth with 50% Human Serum
(§4) Compounds were suspended in a DMSO solution containing 10 mg/ml of compound. The appropriate amount of compound was added to a well of the first column of a 96-well microtiter plate containing 100 μl of Nutrient Broth (NB) or Mueller-Hinton Broth with 50% human serum (MHB+HS), for S. pneumoniae the NB medium was supplemented with 3 or 5% lysed horse blood. The rest of the wells in the row had 50 μl of the same medium in each well. After adding the compound to the first well and mixing thoroughly, 50 μl was taken out, and mixed to the second well of the row. This operation was repeated until the well of column 11 was reached and, after mixing, 50 μl were discarded. […] A concentration gradient of two-fold dilution was achieved by this method. A distinct compound was added to the first column well of the next row of the microtiter plate, and the procedure was repeated until all the rows are used. The plate was then ready for inoculation.
(§5) Bacterial strains were inoculated from a frozen stock on Mueller-Hinton Agar (Difco) or Blood Agar for S. pneumoniae and grown at 35° C. overnight. Cells were suspended in sterile saline to 0.5 McFarland standard. The inoculum was diluted approximately 1:1000 in the appropriate medium to reach an inoculum size of 10^5 cfu/ml (NB, NB supplemented with 3 or 5% lysed horse blood for S. pneumoniae, or MHB+HS). The diluted cell suspension was used to inoculate the microtiter plate containing two-fold dilution of the test compound. Each well of the microtiter plate received 50 μl of the cell suspension. The final volume was 100 μl (50 μl from the inoculum and 50 μl of the medium containing the compound).
(§6) The plates were incubated at 35° C. for 16 to 20 hours, the minimal inhibitory concentration (MIC) was recorded and was defined as the lowest concentration of compound that there is no visible growth.
(§7) (2) Solid Medium, Mueller-Hinton Agar with 50% Human Serum
(§8) Compounds were suspended in a DMSO solution containing 10 mg/ml of compound. The appropriate amount of compound was added to melted Mueller-Hinton Agar with 50% human serum (MHA+HS) at 50° C. The medium has been prepared by adding human serum to a melted Mueller-Hinton Agar (MHA) at two fold the concentration. MHA+HS has 50% human serum and normal strength of MHA. The appropriate concentration of compound was added to 4 ml of melted MHA+HS, and poured in a 6 cm diameter petri dish, and the agar was allowed to solidify at room temperature. A set of petri dishes, each dish containing half the concentration of compound of the previously poured dish, was made and used to assess the MIC in solid medium.
(§9) Bacterial strains were inoculated from a frozen stock on Mueller-Hinton Agar (Difco) or Blood Agar for S. pneumoniae and grown at 35° C. overnight. Cells are suspended in sterile saline to 0.5 McFarland standard. The inoculum was diluted approximately 1:10 in sterile saline water to obtain a bacterial suspension at 10^7 cfu/ml. […]

Citrobacter freundii = assay: in vitro MIC assay; format: cell-based; settings: activity = MIC<128 μg/ml
Method: as §1, §2, §3, §4, §5, §6, §7, §8, §9

E. faecium = assay: in vitro MIC assay; format: cell-based; settings: activity = MIC<128 μg/ml
Method: as §1, §2, §3, §4, §5, §6, §7, §8, §9

Enterobacter aerogenes [1] = assay: in vitro MIC assay; format: cell-based; settings: Klebsiella aerogenes, activity = MIC<128 μg/ml
Method: as §1, §2, §3, §4, §5, §6, §7, §8, §9

Haemophilus influenzae = assay: in vitro MIC assay; format: cell-based; settings: activity = MIC<128 μg/ml
Method: as §1, §2, §3, §4, §5, §6, §7, §8, §9

Helicobacter pylori = assay: in vitro MIC assay; format: cell-based; settings: activity = MIC<128 μg/ml
Method: as §1, §2, §3, §4, §5, §6, §7, §8, §9

Moraxella catarrhalis = assay: in vitro MIC assay; format: cell-based; settings: activity = MIC<128 μg/ml
Method: as §1, §2, §3, §4, §5, §6, §7, §8, §9

[2] = test system: Staphylococcus aureus GISA; assay: in vitro MIC assay; format: cell-based; settings: activity = MIC<128 μg/ml
Method: as §1, §2, §3, §4, §5, §6, §7, §8, §9

[3] = test system: Staphylococcus aureus MRSA; assay: in vitro MIC assay; format: cell-based; settings: activity = MIC<128 μg/ml
Method: as §1, §2, §3, §4, §5, §6, §7, §8, §9

Staphylococcus epidermis = assay: in vitro MIC assay; format: cell-based; settings: activity = MIC<128 μg/ml
Method: as §1, §2, §3, §4, §5, §6, §7, §8, §9

[4] = test system: Streptococcus pneumoniae PenR; assay: in vitro MIC assay; format: cell-based; settings: activity = MIC<128 μg/ml
Method: as §1, §2, §3, §4, §5, §6, §7, §8, §9

[5] = test system: Streptococcus pneumoniae PenS; assay: in vitro MIC assay; format: cell-based; settings: activity = MIC<128 μg/ml
Method: as §1, §2, §3, §4, §5, §6, §7, §8, §9

Streptococcus pyogenes = assay: in vitro MIC assay; format: cell-based; settings: activity = MIC<128 μg/ml
Method: as §1, §2, §3, §4, §5, §6, §7, §8, §9

[6] = test system: Escherichia coli ATCC 25922; assay: mouse septicemia model; format: in vivo, ICR male mice; settings: mortality recorded for 7 days, E. coli ATCC 25922 mouse septicemia
Method: (§10) Mice were inoculated intraperitoneally with 2×10^5 cfu/mouse in 0.5 ml of Brain-Heart Infusion broth supplemented with 5% mucin. The compound was tested at 40, 20, 10, 5 and 2.5 mg/kg orally (PO) or at 20, 10, 5 and 2.5 mg/kg intravenously (IV) at 1 and 5 hours after bacterial inoculation. Controls included vehicle control (0.9% NaCl, 10 ml/kg) and an antibiotic control with ampicillin. Mortality was recorded for 7 days, and an ED50 was determined by non-linear regression.

S. Aureus = assay: ED50 against S. Aureus; format: in vivo; settings: Staphylococcus aureus, route not stated
Method: as §10

[7] = kept at 37° C. for one month, cited from earlier work
Staphylococcus aureus = settings: cited from earlier work
Escherichia coli = settings: cited from earlier work
Shigella sonnei = settings: cited from earlier work
Shigella flexneri = settings: cited from earlier work
Salmonella typhosa = settings: cited from earlier work
Salmonella typhi = settings: cited from earlier work
Salmonella typhimurium = settings: cited from earlier work
Salmonella enteriditis = settings: cited from earlier work
Enterobacter sp. = settings: cited from earlier work
Klebsiella pneumoniae = settings: cited from earlier work
Serratia marcescens = settings: cited from earlier work
Herellea vaginicola = settings: cited from earlier work
Proteus vulgaris = settings: cited from earlier work
Proteus rettgeri = settings: cited from earlier work
Pseudomonas aeruginosa = settings: cited from earlier work
Pseudomonas fluorescens = settings: cited from earlier work
Mycobacterium smegmatis = settings: cited from earlier work
Enterobacter aerogenes [8] = settings: cited from earlier work
Proteius mirabilis = settings: cited from earlier work
Candida albicans = settings: cited from earlier work
Cryptococcus neoformans = settings: cited from earlier work
Trichophyton tonsurans = settings: cited from earlier work
[9] = test system: Trichophyton mentagraphytes; settings: cited from earlier work
[10] = ATCC25922, intravenously (IV) at 1 and 5 hours after inoculation
[11] = ATCC25922, orally (PO) at 1 and 5 hours after inoculation

SMILES | MIC (E. faecium) | ED50 [6, 10] [mg/kg] | ED50 [6, 11] [mg/kg] | reported as effective against organism (Staphylococcus aureus) | reported as effective against organism (Escherichia coli) | reported as effective against organism (Shigella flexneri) | reported as effective against organism (Salmonella typhi) | reported as effective against organism (Salmonella typhimurium) | reported as effective against organism (Salmonella enteriditis) | reported as effective against organism (Enterobacter sp.) | reported as effective against organism (Klebsiella pneumoniae) | reported as effective against organism (Serratia marcescens) | reported as effective against organism (Herellea vaginicola) | reported as effective against organism (Proteus vulgaris) | reported as effective against organism (Proteus rettgeri) | reported as effective against organism (Pseudomonas aeruginosa) | reported as effective against organism (Pseudomonas fluorescens) | reported as effective against organism (Mycobacterium smegmatis) | further results
CN(CC(=O)O)NC(=O)C[C@H](N)C[C@@H](O)CN [Negamycin, [2-{(3R,5R)-3,6-diamino-5-hydroxyhexanoyl}-1-methylhydrazino]acetic acid] | inactive | 4.1 | 15.1 | effective | effective | effective | effective | effective | effective | effective | effective | effective | effective | effective | effective | effective | effective | effective | MIC (Acinetobacter baumanii): < 128 µg/mL; MIC (Citrobacter freundii): < 128 µg/mL; MIC (Enterobacter aerogenes [1]): < 128 µg/mL; MIC (Haemophilus influenzae; read-out: MIC): < 128 µg/mL; MIC (Helicobacter pylori): < 128 µg/mL; MIC (Moraxella catarrhalis): < 128 µg/mL; MIC ([2]; read-out: MIC): < 128 µg/mL; MIC ([3]; read-out: MIC): < 128 µg/mL; MIC (Staphylococcus epidermis; read-out: MIC): < 128 µg/mL; MIC ([4]; read-out: MIC): < 128 µg/mL; MIC ([5]; read-out: MIC): < 128 µg/mL; MIC (Streptococcus pyogenes; read-out: MIC): < 128 µg/mL; ED50 (S. Aureus): 16.8 mg/kg; activity reduced to ([7]; in 0.02N HCl aqueous solution): 50%; activity reduced to ([7]; in aqueous solution): 63%; reported as effective against organism (Shigella sonnei): effective; reported as effective against organism (Salmonella typhosa): effective
CC1(C)S[C@@H]2[C@H](NC(=O)[C@H](N)c3ccccc3)C(=O)N2[C@H]1C(=O)O [Ampicillin, reference compound] | – | 6.8 | 27.6 | – | – | – | – | – | – | – | – | – | – | – | – | – | – | – | –
CN(CC(=O)O)NC(=O)C[C@H](N)CCCN [Deoxynegamycin, D-3,6-diaminiohexanoic acid-2-(carboxymethyl)-2-methylhyrazide] | inactive | 4.8 | – | effective | effective | effective | effective | effective | effective | effective | effective | effective | effective | effective | effective | effective | effective | effective | MIC (Haemophilus influenzae): exhibited activity; MIC [2]: exhibited activity; MIC [3]: exhibited activity; MIC (Staphylococcus epidermis): exhibited activity; MIC [4]: exhibited activity; MIC [5]: exhibited activity; MIC (Streptococcus pyogenes): exhibited activity; reported as effective against organism (Enterobacter aerogenes [8]): effective; reported as effective against organism (Proteius mirabilis): effective; reported as effective against organism (Candida albicans): effective; reported as effective against organism (Cryptococcus neoformans): effective; reported as effective against organism (Trichophyton tonsurans): effective; reported as effective against organism [9]: effective
